Assay [1] deals with T1, h-TGR5 (Homo sapiens, UniProt Q8TDU6).
T1 construct: expressed in transfected cells
T1 sequence (Q8TDU6 1-330): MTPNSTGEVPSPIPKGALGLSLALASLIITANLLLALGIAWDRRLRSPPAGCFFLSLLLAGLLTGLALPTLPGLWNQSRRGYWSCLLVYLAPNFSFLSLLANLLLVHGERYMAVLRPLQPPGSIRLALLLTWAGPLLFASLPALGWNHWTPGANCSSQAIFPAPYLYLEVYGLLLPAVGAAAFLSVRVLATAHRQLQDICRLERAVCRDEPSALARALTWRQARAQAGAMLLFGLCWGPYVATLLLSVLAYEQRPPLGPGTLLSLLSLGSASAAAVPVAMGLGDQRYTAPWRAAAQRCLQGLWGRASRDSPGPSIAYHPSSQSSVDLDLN
In words: TGR5 cAMP Assay using Cisbio cAMP Dynamic2 htrf kit (hTGR5CRE-luc HEK 293 cells). It counts as cell-based. The conditions noted are these: h-TGR5 cAMP EC50, Table 1; read-out: cAMP (EC50). As to the method:
Compounds were diluted in DPBS with 5% DMSO (8-point serial dilution by half logs) in a 96-well plate and 1 μL was transferred to a 384-well assay plate in quadruplicate. The d2-cAMP and anti-cAMP Ab-cryptate stock solution were prepared as per the instructions in the Cisbio™ (Bedford, Mass.) kit. […] Cells were adjusted to 0.44×10^6 cells/ml followed by addition of IBMX to a final concentration of 0.5 mM. The cells were then mixed with d2-cAMP solution (7.1 mL cells+100 ul d2-cAMP) and 4000 cells (9 μL) were transferred to each well of the 384-well assay plate. Cells without d2-cAMP were added to eight wells as a negative control. The plate was covered and incubated at room temp for 30 min. Then 10 μL of Ab-cryptate solution was added to each well of the assay plate and incubated for 1 hr. The plate was read on an EnVision™ plate reader (Perkin-Elmer, Waltham, Mass.) and the DeltaF value was calculated as per the instructions in the Cisbio™ kit.
In the following tables, EC50 values determined according to the TGR5 cAMP Assay described herein (cAMP); EC50 values determined according to the TGR5/CRE-Luciferiase Assay described herein (CRE-Luc). […] The following compounds in Tables 1 and 2 were made by using procedures described in the above Schemes and Examples, and, where applicable, by making any necessary substitutions of known materials that one skilled in the art would ordinarily understand how to do.

Assay [2] concerns the target T2, human TGR5 (h-TGR5) (Homo sapiens, UniProt Q8TDU6).
T2 construct: expressed in transfected cells
T2 sequence (Q8TDU6 1-330): T1 sequence (Q8TDU6 1-330)
As to the kind of experiment: TGR5/CRE-Luciferiase Assay (HEK 293 hTGR5/CRE-Luc cells). It counts as cell-based. The conditions noted are these: h-TGR5 CRE-Luc EC50, Table 1; read-out: CRE-Luc (EC50). An outline of the steps: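 HEK293 cells stably carrying hTGR5 and a CRE-luciferase reporter were exposed to serially diluted compounds (diluted in DMEM with 5% DMSO) for 6 h. Cells were then lysed in luciferase buffer, luminescence was read, and EC50 values were derived from dose-response curves.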

pEC50: −log10 of the molar value.

Consider `COc1cc(-n2c(C(C)(C)c3ccc(Cl)c(Cl)c3)cnc2SCc2c(F)cc(C(=O)O)cc2Cl)ccc1F` [3-chloro-4-[({5-[1-(3,4-dichlorophenyl)-1-methylethyl]-1-[4-fluoro-3-(methyloxy)phenyl]-1H-imidazol-2-yl}thio)methyl]-5-fluorobenzoic acid], for which the pEC50 in assay [1] and in assay [2] was greater than 7.00 each time.

With `COc1ccc(C(C)(C)c2cnc(COc3c(F)cccc3Cl)n2-c2ccc(F)cc2)cc1OC` [5-{1-[3,4-bis(methyloxy)phenyl]-1-methylethyl}-2-{[(2-chloro-6-fluorophenyl)oxy]methyl}-1-(4-fluorophenyl)-1H-imidazole], the pEC50 in assay [1] and in assay [2] was greater than 7.00 throughout.

As for `CC(C)(c1ccc(F)c(Cl)c1)c1cnc(SCc2ccc(S(=O)(=O)NC(=O)NN3CCCC3)cc2Cl)n1-c1ccc(F)cc1` [3-chloro-4-[({5-[1-(3-chloro-4-fluorophenyl)-1-methylethyl]-1-(4-fluorophenyl)-1H-imidazol-2-yl}thio)methyl]-N-[(pyrrolidin-1-ylamino)carbonyl]benzenesulfonamide], the negative-log EC50 (pEC50) in assay [1] and in assay [2] was 6.00 to 7.00 throughout.

Take `COc1cc(-n2c(C(C)(C)c3ccc(S(N)(=O)=O)c(Cl)c3)cnc2SCc2ccc(S(N)(=O)=O)cc2Cl)ccc1F` [4-(1-{2-({[4-(aminosulfonyl)-2-chlorophenyl]methyl}thio)-1-[4-fluoro-3-(methyloxy)phenyl]-1H-imidazol-5-yl}-1-methylethyl)-2-chlorobenzenesulfonamide]: the pEC50 in assay [1] and in assay [2] was greater than 7.00 each time.

Take `COc1cc(C(C)(C)c2cnc(SCc3c(F)cccc3Cl)n2-c2ccc(F)cc2)ccc1Cl` [2-{[(2-chloro-6-fluorophenyl)methyl]thio}-5-{1-[4-chloro-3-(methyloxy)phenyl]-1-methylethyl}-1-(4-fluorophenyl)-1H-imidazole]: the negative-log EC50 (pEC50) in assay [1] and in assay [2] was greater than 7.00 throughout.

For the molecule `COc1ccc(C(C)(C)c2cnc(SCc3ccc(Cl)c(C(=O)O)c3)n2-c2ccc(F)cc2)cc1Cl` [2-chloro-5-({[5-{1-[3-chloro-4-(methyloxy)phenyl]-1-methylethyl}-1-(4-fluorophenyl)-1H-imidazol-2-yl]thio}methyl)benzoic acid], the pEC50 in assay [1] and in assay [2] was 6.00 to 7.00 in each case.

For the molecule `CC(C)(c1ccc(Cl)c(Cl)c1)c1cnc(SCC2CCN(S(C)(=O)=O)CC2)n1-c1ccc(F)cc1` [4-[({5-[1-(3,4-dichlorophenyl)-1-methylethyl]-1-(4-fluorophenyl)-1H-imidazol-2-yl}thio)methyl]-1-(methylsulfonyl)piperidine], the negative-log EC50 (pEC50) (as a rule, the EC50 on a negative log10 scale, so that one unit is a factor of ten) is 6.00 to 7.00 in assay [1] and greater than 7.00 in assay [2].

In the case of `COc1cc(C(C)(C)c2cnc(SCc3cc(S(N)(=O)=O)c(F)cc3Cl)n2-c2ccc(F)cc2)ccc1Cl` [4-chloro-5-({[5-{1-[4-chloro-3-(methyloxy)phenyl]-1-methylethyl}-1-(4-fluorophenyl)-1H-imidazol-2-yl]thio}methyl)-2-fluorobenzenesulfonamide], the pEC50 in assay [1] and in assay [2] was greater than 7.00 in each case.

Consider `CC(C)(c1ccc(S(N)(=O)=O)cc1)c1cnc(SCc2ccc(S(=O)(=O)NC(=O)NN3CCOCC3)cc2Cl)n1-c1ccc(F)c(Cl)c1` [4-({[5-{1-[4-(aminosulfonyl)phenyl]-1-methylethyl}-1-(3-chloro-4-fluorophenyl)-1H-imidazol-2-yl]thio}methyl)-3-chloro-N-[(morpholin-4-ylamino)carbonyl]benzenesulfonamide], for which the negative logarithm of the EC50 (pEC50) in assay [1] was 5.00 to 6.00.

For `COc1cc(C(C)(C)c2cnc(SCc3ccc(S(=O)(=O)NC(=O)NN4CCCC4)cc3Cl)n2-c2cc(C)c(Cl)cn2)ccc1Cl` [3-chloro-4-({[5-{1-[4-chloro-3-(methyloxy)phenyl]-1-methylethyl}-1-(5-chloro-4-methylpyridin-2-yl)-1H-imidazol-2-yl]thio}methyl)-N-[(pyrrolidin-1-ylamino)carbonyl]benzenesulfonamide], in assay [1], the pEC50 was 5.00 to 6.00.

On to `Cc1cc(-n2c(C(C)(C)c3ccc(F)cc3)cnc2SCc2ccc(S(=O)(=O)NC(=O)NN3CCCC3)cc2Cl)ccc1F` [3-chloro-4-[({1-(4-fluoro-3-methylphenyl)-5-[1-(4-fluorophenyl)-1-methylethyl]-1H-imidazol-2-yl}thio)methyl]-N-[(pyrrolidin-1-ylamino)carbonyl]benzenesulfonamide], for which, in assay [1], the negative logarithm of the EC50 (pEC50) is 6.00 to 7.00.

As for `CC(C)(c1ccc(S(N)(=O)=O)cc1)c1cnc(SCc2ccc(S(=O)(=O)NC(=O)NN3CCOCC3)cc2Cl)n1-c1ccc(F)c(F)c1` [4-({[5-{1-[4-(aminosulfonyl)phenyl]-1-methylethyl}-1-(3,4-difluorophenyl)-1H-imidazol-2-yl]thio}methyl)-3-chloro-N-[(morpholin-4-ylamino)carbonyl]benzenesulfonamide], in assay [1], the pEC50 is 5.00 to 6.00.

Consider `COCC1CCCN1NC(=O)NS(=O)(=O)c1ccc(CSc2ncc(C(C)(C)c3ccc(Cl)c(OC)c3)n2-c2ccc(F)cc2)c(Cl)c1` (stereo in doubt) [3-chloro-4-({[5-{1-[4-chloro-3-(methyloxy)phenyl]-1-methylethyl}-1-(4-fluorophenyl)-1H-imidazol-2-yl]thio}methyl)-N-[({(2S)-2-[(methyloxy)methyl]pyrrolidin-1-yl}amino)carbonyl]benzenesulfonamide], for which the negative logarithm of the EC50 (pEC50) in assay [1] was 6.00 to 7.00.

Consider `CC(C)(c1ccc(S(C)(=O)=O)cc1)c1cnc(SCc2ccc(Cl)c(-c3nnn[nH]3)c2)n1-c1ccc(F)c(F)c1` [5-[2-chloro-5-({[1-(3,4-difluorophenyl)-5-{1-methyl-1-[4-(methylsulfonyl)phenyl]ethyl}-1H-imidazol-2-yl]thio}methyl)phenyl]-1H-tetrazole], for which the negative-log EC50 (pEC50) in assay [1] is 5.00 to 6.00.

Take `CNS(=O)(=O)c1ccc(C(C)(C)c2cnc(SCc3ccc(S(=O)(=O)NC(=O)NN4CCCC4)cc3Cl)n2-c2ccc(F)cc2)cc1Cl` [2-chloro-4-{1-[2-({[2-chloro-4-({[(pyrrolidin-1-ylamino)carbonyl]amino}sulfonyl)phenyl]methyl}thio)-1-(4-fluorophenyl)-1H-imidazol-5-yl]-1-methylethyl}-N-methylbenzenesulfonamide]: in assay [1], the pEC50 was 5.00 to 6.00.

As to `Cc1cc(-n2c(C(C)(C)c3ccc(S(C)(=O)=O)cc3)cnc2SCc2ccc(S(=O)(=O)NC(=O)NN3CCCC3)cc2Cl)ccc1F` [3-chloro-4-({[1-(4-fluoro-3-methylphenyl)-5-{1-methyl-1-[4-(methylsulfonyl)phenyl]ethyl}-1H-imidazol-2-yl]thio}methyl)-N-[(pyrrolidin-1-ylamino)carbonyl]benzenesulfonamide], the pEC50 in assay [1] is 5.00 to 6.00.

`COc1cc(C(C)(C)c2cnc(SCc3ccc(S(=O)(=O)NC(=O)NN4CCCC4)cc3Cl)n2-c2ccc(F)cc2)ccc1S(C)(=O)=O` [3-chloro-4-({[1-(4-fluorophenyl)-5-{1-methyl-1-[3-(methyloxy)-4-(methylsulfonyl)phenyl]ethyl}-1H-imidazol-2-yl]thio}methyl)-N-[(pyrrolidin-1-ylamino)carbonyl]benzenesulfonamide]: the pEC50 in assay [1] was 6.00 to 7.00.

Take `CC(C)(c1ccc(S(C)(=O)=O)cc1)c1cnc(SCc2ccc(S(=O)(=O)NC(=O)NN3CCCC3)cc2Cl)n1-c1ccc(F)c(F)c1` [3-chloro-4-({[1-(3,4-difluorophenyl)-5-{1-methyl-1-[4-(methylsulfonyl)phenyl]ethyl}-1H-imidazol-2-yl]thio}methyl)-N-[(pyrrolidin-1-ylamino)carbonyl]benzenesulfonamide]: the negative logarithm of the EC50 (pEC50) in assay [1] is 5.00 to 6.00.

Consider `COc1cc(C(C)(C)c2cnc(SCc3ccc(S(=O)(=O)NC(=O)NN4CCCC4)cc3Cl)n2-c2ncc(F)cc2F)ccc1Cl` [3-chloro-4-({[5-{1-[4-chloro-3-(methyloxy)phenyl]-1-methylethyl}-1-(3,5-difluoropyridin-2-yl)-1H-imidazol-2-yl]thio}methyl)-N-[(pyrrolidin-1-ylamino)carbonyl]benzenesulfonamide], for which, in assay [1], the negative-log EC50 (pEC50) was 5.00 to 6.00.

As to `CC(C)(c1ccc(F)c(C(F)F)c1)c1cnc(SCc2ccc(S(=O)(=O)NC(=O)NN3CCCC3)cc2Cl)n1-c1ccc(F)cc1` [3-chloro-4-({[5-{1-[3-(difluoromethyl)-4-fluorophenyl]-1-methylethyl}-1-(4-fluorophenyl)-1H-imidazol-2-yl]thio}methyl)-N-[(pyrrolidin-1-ylamino)carbonyl]benzenesulfonamide], the pEC50 in assay [1] is 5.00 to 6.00.
